Experimental data reported in patent US20030003086A1, “Modulation of MHC class I antigen presentation” (priority 2001, published 2003).

What was measured:
pure PSA = pure PSA (Homo sapiens, UniProt P55786); assay: Degradation of FAPGNYPAL by pure PSA; format: biochemical; details: PSA at concentrations similar to those found in HeLa cells
living cells = details: cited from earlier work
TOP [1] = biological target: T1, TOP (Homo sapiens, UniProt P52888); assay: Generation of SIINFEKL+Kb complexes in Kb-Cos7 cells loaded with ovalbumin and TOP inhibitor by hypertonic lysis of pinosomes (25D1 staining, flow cytometry); format: cell-based; details: cells transfected with TOP
T1 construct: was introduced into pTracer-transfected Kb-Cos7 cells; endogenous in cells; host or cells: Kb-Cos7 cells transfected with pTracer (GFP) only
Description: (§1) To test whether TOP can influence antigen presentation, the effects of transiently overexpressing TOP in vivo on the presentation of SIINFEKL (SEQ ID NO:5) peptide produced in the cytoplasm from a synthetic minigene were studied. In one set of experiments, expression vectors encoding TOP and SIINFEKL were transiently co-transfected into Kbexpressing COS7 cells. The presentation of SIINFEKL on MHC class I Kb molecules was detected by staining with a SIlNFEKL+Kb-specific monoclonal antibody (25D1) (Porgador et al., 1997, Immunity. 6:715-726) and quantified by flow cytometry. Briefly, Kb-Cos7 cells were co-transfected with a SIINFEKL minigene in pCDNA3 and a pTracer plasmid encoding green fluorescence protein (GFP), GFP+human TOP or GFP+ORP 150 (a control protein) using FuGENE™ (Roche Applied Science). After 48 hours, the cells were stained with an anti-SIINFEKL+Kb specific nAb (25D1) (Porgador et al., 1997, supra) followed by pbycoerythrin-conjugated anti-immunoglobulin antibody and fluorescence was measured by flow fluorocytometry. […]
(§2) The data of FIG. 3C were generated in experiments in which ovalbumin (40 mg/ml) admixed with either the TOP inhibitor cPP-AAF-pAB (1 mM) or vehicle (DMSO) was introduced into pTracer-transfected Kb-Cos7 cells. After two hours the presence of SIINFEKL+Kb complexes was determined by immunofluorescence as described for FIG. 1A (supra). […]

TOP [2] = assay: as above; format: cell-based; details: Kb-Cos7 cells not overexpressing TOP; ovalbumin 40 mg/ml, inhibitor 1 mM, two hours; FIG. 3C
Description: as §1, §2

Chain of pure PSA (P55786 whole entry): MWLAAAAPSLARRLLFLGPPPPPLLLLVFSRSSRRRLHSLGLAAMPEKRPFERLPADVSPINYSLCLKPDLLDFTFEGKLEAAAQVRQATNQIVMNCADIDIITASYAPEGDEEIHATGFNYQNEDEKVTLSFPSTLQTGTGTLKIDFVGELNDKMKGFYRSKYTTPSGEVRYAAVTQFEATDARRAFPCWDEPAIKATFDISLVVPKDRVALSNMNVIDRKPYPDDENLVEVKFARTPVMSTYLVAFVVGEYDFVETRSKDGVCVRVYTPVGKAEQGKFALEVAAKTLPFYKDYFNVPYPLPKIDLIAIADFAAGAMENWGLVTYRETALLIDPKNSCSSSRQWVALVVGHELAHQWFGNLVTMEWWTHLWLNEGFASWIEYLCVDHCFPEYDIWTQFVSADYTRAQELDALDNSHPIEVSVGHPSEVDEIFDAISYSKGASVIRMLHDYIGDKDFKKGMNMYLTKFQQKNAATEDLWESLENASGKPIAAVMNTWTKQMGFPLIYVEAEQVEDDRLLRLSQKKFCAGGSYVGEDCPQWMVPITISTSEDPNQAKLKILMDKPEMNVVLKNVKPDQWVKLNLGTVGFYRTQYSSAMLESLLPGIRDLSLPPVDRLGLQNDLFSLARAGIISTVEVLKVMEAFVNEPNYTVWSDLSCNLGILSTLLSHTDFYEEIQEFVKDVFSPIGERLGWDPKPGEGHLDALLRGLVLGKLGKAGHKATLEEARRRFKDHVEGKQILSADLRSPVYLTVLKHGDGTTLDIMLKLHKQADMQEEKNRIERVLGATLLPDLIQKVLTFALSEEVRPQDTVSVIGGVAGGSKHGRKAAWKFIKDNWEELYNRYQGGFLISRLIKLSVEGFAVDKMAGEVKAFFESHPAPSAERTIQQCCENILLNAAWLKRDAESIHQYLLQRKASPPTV
T1 sequence (P52888 whole entry): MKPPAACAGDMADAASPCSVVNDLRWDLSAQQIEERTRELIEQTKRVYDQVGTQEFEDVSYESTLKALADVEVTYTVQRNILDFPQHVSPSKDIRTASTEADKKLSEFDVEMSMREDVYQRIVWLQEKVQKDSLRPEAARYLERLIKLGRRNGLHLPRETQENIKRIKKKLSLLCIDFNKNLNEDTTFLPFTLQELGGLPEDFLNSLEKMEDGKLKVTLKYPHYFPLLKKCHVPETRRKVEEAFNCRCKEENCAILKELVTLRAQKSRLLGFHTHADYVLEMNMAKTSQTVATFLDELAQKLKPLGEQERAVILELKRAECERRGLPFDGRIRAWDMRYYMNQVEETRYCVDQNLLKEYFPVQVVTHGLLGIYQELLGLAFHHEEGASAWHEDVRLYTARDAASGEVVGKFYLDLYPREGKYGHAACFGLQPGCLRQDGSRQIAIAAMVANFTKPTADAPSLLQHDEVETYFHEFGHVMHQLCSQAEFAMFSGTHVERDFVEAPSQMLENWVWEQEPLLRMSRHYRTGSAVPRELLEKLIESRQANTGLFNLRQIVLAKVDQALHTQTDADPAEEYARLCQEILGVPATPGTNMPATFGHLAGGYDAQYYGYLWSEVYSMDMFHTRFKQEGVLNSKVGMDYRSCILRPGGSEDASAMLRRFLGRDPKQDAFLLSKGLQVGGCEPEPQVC

Row | Substance | susceptibility to degradation by pure PSA (pure PSA) | entry into living cells / cell cytosol (living cells) | generation of SIINFEKL-Kb complexes (MHC class I presentation) (TOP [1]) | generation of SIINFEKL-Kb complexes (MHC class I presentation) (TOP [2])
1 | FAPGNYPAL [antigenic peptide, Sendai Virus NP, residues 324-332] | particularly susceptible to degradation | – | – | –
2 | N-(1(RS)-carboxy-3-phenylpropyl)-Ala-Ala-Tyr-p-aminobenzoate [cPP-AAF-PAB] | – | does not enter living cells | enhanced | enhanced
